Columns and labels:
[1] = tested on: MCF-7 cells; assay: Cell viability assay, MCF-7 cells (CellTiter-Glo, 168 h); type: cell-based; conditions: Homo sapiens, MCF7
Summary of the method: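 MCF-7 cells (about 3,000/well) were incubated with compound at 8 concentrations for 168 h at 37 °C, 5% CO2. Viability was read by CellTiter-Glo luminescence, and IC50 intervals were derived from survival rates.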

[2] = target: T1, CDK6/CyclinD1 (Homo sapiens, UniProt Q00534); assay: In vitro cell-free CDK6/CyclinD1 kinase activity assay (TR-FRET); type: biochemical; conditions: ATP at Km
T1 construct: purchased Carna 04-114
Summary of the method: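 TR-FRET readout: reaction stopped with EDTA-containing detection buffer holding peptide antibody and Sa-XL665, 1 h at room temperature, then 665/615 nm emission ratio (excitation 330 nm) taken as activity. 8-10 compound concentrations from DMSO stocks at 200× working concentration; IC50 fitted versus no-inhibitor and no-enzyme controls.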

T1 sequence (Q00534 whole entry): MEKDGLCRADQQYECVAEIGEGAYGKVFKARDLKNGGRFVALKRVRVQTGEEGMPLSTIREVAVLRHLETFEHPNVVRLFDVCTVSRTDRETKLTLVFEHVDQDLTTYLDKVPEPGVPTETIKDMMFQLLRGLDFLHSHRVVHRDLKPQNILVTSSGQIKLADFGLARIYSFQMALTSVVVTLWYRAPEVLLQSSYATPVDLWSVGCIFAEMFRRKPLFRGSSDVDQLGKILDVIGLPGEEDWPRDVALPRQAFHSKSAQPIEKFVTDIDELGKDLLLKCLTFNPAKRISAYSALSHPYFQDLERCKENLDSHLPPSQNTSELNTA
T1 sequence (P24385 whole entry partner): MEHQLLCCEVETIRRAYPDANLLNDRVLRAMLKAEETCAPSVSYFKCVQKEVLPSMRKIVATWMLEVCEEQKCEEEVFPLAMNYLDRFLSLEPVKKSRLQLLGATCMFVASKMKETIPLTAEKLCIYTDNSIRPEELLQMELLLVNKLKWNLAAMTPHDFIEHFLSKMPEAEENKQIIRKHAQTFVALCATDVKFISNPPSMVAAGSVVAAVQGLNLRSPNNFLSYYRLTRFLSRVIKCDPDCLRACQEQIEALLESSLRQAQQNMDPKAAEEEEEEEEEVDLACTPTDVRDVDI

SMILES	IC50 [1] [µM]	IC50 [2] [µM]
[2H]C([2H])([2H])N(C(=O)c1cc2cnc(Nc3ccc(N4CCN(C)CC4)cn3)nn2c1-c1ccccc1)C([2H])([2H])[2H] [Example 120]	< 0.5	< 0.1
[2H]C([2H])([2H])N(C(=O)c1cc2cnc(Nc3ccc(N4CCN(C)CC4)cn3)nn2c1-c1ccc(OC)cc1)C([2H])([2H])[2H] [Example 121]	< 0.5	< 0.1
[2H]C([2H])([2H])N(C(=O)c1cc2cnc(Nc3ccc(N4CCNCC4)cn3)nn2c1C1=CCOCC1)C([2H])([2H])[2H] [Example 122]	< 0.5	< 0.1
[2H]C([2H])([2H])N1CCN(c2ccc(Nc3ncc4cc(C(=O)N(C([2H])([2H])[2H])C([2H])([2H])[2H])c(-c5ccccc5)n4n3)nc2)CC1 [Example 123]	< 0.5	< 0.1
[2H]C([2H])([2H])N1CCN(c2ccc(Nc3ncc4cc(C(=O)N(C([2H])([2H])[2H])C([2H])([2H])[2H])c(-c5ccc(OC)cc5)n4n3)nc2)CC1 [Example 124]	< 0.5	< 0.1
[2H]C([2H])([2H])N1CCN(c2ccc(Nc3ncc4cc(C(=O)N(C([2H])([2H])[2H])C([2H])([2H])[2H])c(-c5ccc(F)cc5)n4n3)nc2)CC1 [Example 125]	< 0.5	< 0.1
[2H]C([2H])([2H])N1CCN(c2ccc(Nc3ncc4cc(-c5cnn(C)c5)c(C5=CCCC5)n4n3)nc2)CC1 [Example 126]	< 0.5	< 0.1
[2H]C([2H])([2H])N1CCN(c2ccc(Nc3ncc4cc(C(=O)N(C([2H])([2H])[2H])C([2H])([2H])[2H])c(-c5ccc(Cl)cc5)n4n3)nc2)CC1 [Example 127]	< 0.5	< 0.1
CP(C)(=O)c1ccc(Nc2ncc3cc(C#N)c(Br)n3n2)cc1 [Reference Example 128, reference compound]	> 10	1 to 3
Cc1noc(C)c1-c1c(-c2cnn(C)c2)c(-c2c(C)noc2C)n2nc(Nc3ccc(N4CCNCC4)cn3)ncc12 [Reference Example 131, reference compound]	> 10	> 3
COC(=O)c1cc2cnc(Nc3ccc(N4CCNCC4)cn3)nn2c1-c1cccc2cccnc12 [Reference Example 132, reference compound]	> 10	> 3
COC(=O)c1cc2cnc(Nc3ccc(N4CC5(CNC5)C4)cn3)nn2c1-c1cccc2cccnc12 [Reference Example 133, reference compound]	> 10	> 3
Cc1noc(C)c1-c1c(C(=O)N(C)C)cc2cnc(Nc3ccc(N4CC5(CCNC5)C4)cn3)nn12 [Reference Example 134, reference compound]	> 10	1 to 3

Now from value to compound:

IC50 [1] [µM]	IC50 [2] [µM]	SMILES
< 0.5	< 0.1	CN(C)C(=O)c1cc2cnc(Nc3ccc(N4CCNCC4)cn3)nn2c1-c1ccccc1 [Example 108]
< 0.5	< 0.1	CN(C)C(=O)c1cc2cnc(Nc3ccc(N4CCN(C5CC5)CC4)cn3)nn2c1C1=CCCC1 [Example 109]
< 0.5	< 0.1	Cc1cc(-c2cc3cnc(Nc4ccc(N5CCN(C)CC5)cn4)nn3c2C2=CCCC2)ccn1 [Example 110]
< 0.5	< 0.1	C1=C(c2c(-c3cnco3)cc3cnc(Nc4ccc(N5CCNCC5)cn4)nn23)CCC1 [Example 111]
< 0.5	< 0.1	[2H]C([2H])([2H])N(C(=O)c1cc2cnc(Nc3ccc(N4CCNCC4)cn3)nn2c1C1=CCCC1)C([2H])([2H])[2H] [Example 112]
< 0.5	< 0.1	[2H]C([2H])([2H])N(C(=O)c1cc2cnc(Nc3ccc(N4CCN(C)CC4)cn3)nn2c1C1=CCCC1)C([2H])([2H])[2H] [Example 113]
< 0.5	< 0.1	[2H]C([2H])([2H])N1CCN(c2ccc(Nc3ncc4cc(C(=O)N(C([2H])([2H])[2H])C([2H])([2H])[2H])c(C5=CCCC5)n4n3)nc2)CC1 [Example 114]
< 0.5	< 0.1	[2H]C([2H])([2H])N(C(=O)c1cc2cnc(Nc3ccc(N4CCN(C([2H])([2H])C([2H])([2H])[2H])CC4)cn3)nn2c1C1=CCCC1)C([2H])([2H])[2H] [Example 115]
< 0.5	< 0.1	[2H]C([2H])([2H])N(C(=O)c1cc2cnc(Nc3ccc(N4CCNCC4)cn3)nn2c1-c1ccccc1)C([2H])([2H])[2H] [Example 116]
< 0.5	< 0.1	[2H]C([2H])([2H])N(C(=O)c1cc2cnc(Nc3ccc(N4CCNCC4)cn3)nn2c1-c1ccc(OC)cc1)C([2H])([2H])[2H] [Example 117]
< 0.5	< 0.1	[2H]C([2H])([2H])N(C(=O)c1cc2cnc(Nc3ccc(N4CCN(CC)CC4)cn3)nn2c1C1=CCCC1)C([2H])([2H])[2H] [Example 118]
< 0.5	< 0.1	[2H]C([2H])([2H])N(C(=O)c1cc2cnc(Nc3ccc(N4CCN(C)CC4)cn3)nn2c1C1=CCOCC1)C([2H])([2H])[2H] [Example 119]

From patent US20230002393A1, “CDK KINASE INHIBITOR” (BEIJING BENICALL BIOTECH CO., LTD., priority 2019, published 2023)
